From patent publication US20140039044A1, “Hydroxylated Polymethoxyflavone Compositions” (WLLGEN, INC., priority 2006, published 2014)

How the values were obtained:
[1] = system: HT-29 cells; test: Cell survival assay (antiproliferative IC50); assay type: cell-based, human; settings: Homo sapiens
In short: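 HT-29 cells in RPMI 1640 with 10% heat-inactivated FBS, 2×10^5 per well, treated next day with compounds from DMSO stocks (0.05% DMSO final) for 24 h, or 1, 3 or 6 days. Growth read by hemocytometer count and CyQUANT total nucleic acid content; IC50 antiproliferative.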

[2] = system: HT-29 cells; test: Cell cycle distribution by flow cytometry; assay type: cell-based, human; settings: for Cell Cycle Distribution G0/G1 / Cell Cycle Distribution G2/M / Cell Cycle Distribution S: 24 h
In short: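 Cells were treated 24 h with compound at 5, 10, 25, 50 or 100 μM, or with DMSO. They were then ethanol-fixed, RNase-treated and stained with propidium iodide. DNA content was measured by FACScan flow cytometry to give cell-cycle phase distribution.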

[3] = system: HL-60 cells; test: Cell cycle distribution by flow cytometry; assay type: cell-based, human; settings: for Cell Cycle Distribution G0/G1 / Cell Cycle Distribution G2/M / Cell Cycle Distribution S: Table 10
In short: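 HL-60 cells were treated for 24 h with compound at 5, 10, 25, 50 or 100 μM, or with DMSO. Cells were then ethanol-fixed, treated with Triton X-100/RNase and stained with propidium iodide. DNA content was measured by flow cytometry to give cell-cycle phase distribution.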

[4] = system: LPS-induced nitrite production in RAW 264.7 macrophages; test: Nitrite assay (Griess reaction); assay type: cell-based, mouse; settings: 100 ng/ml LPS, PMF 30 μM, 24 h, FIG. 3
Procedure: Compounds or compositions were tested for anti-inflammatory effects by monitoring nitrite production in LPS-activated RAW264.7 cells. After treating the cells with LPS or LPS and test substance, supernatants were harvested and the amount of nitrite, an indicator of NO synthesis, was measured by use of the Griess reaction. Briefly, supernatants (100 μl) were mixed with the same volume of Griess reagent (1% sulphanilamide in 5% phosphoric acid and 0.1% naphthylethylenediamine dihydrochloride in water) in duplicate on 96-well plates. After incubation at room temperature for 10 min, absorbance at 570 nm was measured with a ELISA reader (Thermo Labsystems Multiskan Ascent, Finland).
The anti-inflammatory effects of compounds A-K were tested by measuring nitrite production in LPS-activated RAW 264.7 macrophages, as described in Section 8.4 above. Macrophages were treated with 100 ng/ml LPS alone or LPS and PMF (10 or 30 μM) for 24 h. At the end of incubation time, 100 μl of the culture medium was collected for the nitrite assay.

Row | SMILES | IC50 [1] [µM] | Cell Cycle Distribution G0/G1 ([2]; 5 μM) | Cell Cycle Distribution G2/M ([2]; 5 μM) | Cell Cycle Distribution S ([2]; 5 μM) | Cell Cycle Distribution G0/G1 ([2]; 10 μM) | Cell Cycle Distribution G2/M ([2]; 10 μM) | Cell Cycle Distribution S ([2]; 10 μM) | Cell Cycle Distribution G0/G1 ([2]; 25 μM) | Cell Cycle Distribution G2/M ([2]; 25 μM) | Cell Cycle Distribution S ([2]; 25 μM) | Cell Cycle Distribution G0/G1 ([2]; 50 μM) | Cell Cycle Distribution G2/M ([2]; 50 μM) | Cell Cycle Distribution S ([2]; 50 μM) | Cell Cycle Distribution G0/G1 ([2]; 100 μM) | Cell Cycle Distribution G2/M ([2]; 100 μM) | Cell Cycle Distribution S ([2]; 100 μM) | Cell Cycle Distribution G0/G1 ([3]; 5 μM, 24 h) | Cell Cycle Distribution G2/M ([3]; 5 μM, 24 h) | Cell Cycle Distribution S ([3]; 5 μM, 24 h) | Cell Cycle Distribution G0/G1 ([3]; 10 μM, 24 h) | further results
1 | COc1ccc(-c2cc(=O)c3c(O)c(OC)c(OC)c(OC)c3o2)cc1O [Compound K, 5,3′-dihydroxy-6,7,8,4′-tetramethoxyflavone] | 40 | 60.57 ± 0.04 | 9.87 ± 0.78 | 29.71 ± 0.94 | 57.94 ± 0.50 | 11.52 ± 0.27 | 30.55 ± 0.77 | 50.58 ± 1.35 | 12.49 ± 0.09 | 36.94 ± 1.45 | 64.13 ± 0.83 | 13.14 ± 0.47 | 22.73 ± 0.37 | 47.16 ± 2.59 | 36.12 ± 4.37 | 16.72 ± 1.73 | 0.56 ± 0.76 | 35.91 ± 0.11 | 60.54 ± 4.90 | 0.38 ± 0.06 | G2/M cell cycle arrest, in words [2]: strongly potentiated the G2/M cell cycle arrest; G2/M cell cycle arrest, in words [3]: strongly potentiated the G2/M cell cycle arrest; Cell Cycle Distribution G2/M ([3]; 10 μM, 24 h): 54.41 ± 4.77; Cell Cycle Distribution S ([3]; 10 μM, 24 h): 45.22 ± 4.83; Cell Cycle Distribution G0/G1 ([3]; 25 μM, 24 h): 0.68 ± 0.42; Cell Cycle Distribution G2/M ([3]; 25 μM, 24 h): 49.12 ± 2.64; Cell Cycle Distribution S ([3]; 25 μM, 24 h): 50.23 ± 3.08; Cell Cycle Distribution G0/G1 ([3]; 50 μM, 24 h): 2.63 ± 2.50; Cell Cycle Distribution G2/M ([3]; 50 μM, 24 h): 45.05 ± 0.01; Cell Cycle Distribution S ([3]; 50 μM, 24 h): 52.33 ± 2.51; Cell Cycle Distribution G0/G1 ([3]; 100 μM, 24 h): 3.18 ± 2.62; Cell Cycle Distribution G2/M ([3]; 100 μM, 24 h): 30.61 ± 4.64; Cell Cycle Distribution S ([3]; 100 μM, 24 h): 66.21 ± 1.72; Rank of inhibitory potency on LPS-induced nitrite production [4]: H>G>K>C>I>B
2 | COc1c(OC)c(OC)c2c(=O)cc(-c3ccc(O)c(O)c3)oc2c1OC [H, 3′,4′-dihydroxy-5,6,7,8-tetramethoxyflavone] | 74.72 ± 0.2 | 63.21 ± 1.82 | 7.53 ± 0.81 | 29.26 ± 2.63 | 64.87 ± 0.74 | 8.19 ± 0.09 | 26.95 ± 0.64 | 63.87 ± 0.92 | 8.45 ± 0.46 | 27.68 ± 1.37 | 63.10 ± 0.16 | 7.94 ± 0.84 | 28.98 ± 0.69 | 61.66 ± 1.44 | 4.98 ± 1.55 | 33.37 ± 0.11 | 49.78 ± 1.80 | 4.37 ± 5.00 | 45.85 ± 6.80 | 49.29 ± 1.53 | Cell Cycle Distribution G2/M ([3]; 10 μM, 24 h): 2.76 ± 3.90; Cell Cycle Distribution S ([3]; 10 μM, 24 h): 47.95 ± 5.43; Cell Cycle Distribution G0/G1 ([3]; 25 μM, 24 h): 52.82 ± 0.15; Cell Cycle Distribution G2/M ([3]; 25 μM, 24 h): 5.49 ± 1.11; Cell Cycle Distribution S ([3]; 25 μM, 24 h): 41.68 ± 0.93; Cell Cycle Distribution G0/G1 ([3]; 50 μM, 24 h): 62.04 ± 1.19; Cell Cycle Distribution G2/M ([3]; 50 μM, 24 h): 10.70 ± 0.89; Cell Cycle Distribution S ([3]; 50 μM, 24 h): 27.27 ± 0.31; Cell Cycle Distribution G0/G1 ([3]; 100 μM, 24 h): 61.15 ± 7.03; Cell Cycle Distribution G2/M ([3]; 100 μM, 24 h): 25.94 ± 8.32; Cell Cycle Distribution S ([3]; 100 μM, 24 h): 12.91 ± 15.34; Cell cycle arrest, in words ([3]; 25-100 μM, 24 h): significant G1 arrest; Rank of inhibitory potency on LPS-induced nitrite production [4]: H>G>K>C>I>B
3 | COc1ccc(-c2cc(=O)c3c(OC)c(OC)c(OC)c(OC)c3o2)cc1O [I, 3′-hydroxy-5,6,7,8,4′-pentamethoxyflavone] | > 100 | 60.78 ± 1.52 | 7.95 ± 0.71 | 31.28 ± 0.81 | 61.09 ± 1.06 | 7.89 ± 0.23 | 31.02 ± 1.30 | 60.90 ± 0.87 | 7.48 ± 0.64 | 31.63 ± 0.23 | 66.36 ± 0.88 | 9.83 ± 0.61 | 23.81 ± 0.28 | 74.18 ± 2.33 | 0.37 ± 0.40 | 25.45 ± 2.72 | 44.51 ± 2.37 | 9.23 ± 0.16 | 46.27 ± 2.21 | 43.22 ± 1.85 | Cell cycle arrest, in words ([2]; 5-100 μM, 24 h exposure): significant accumulation of cells in G1 phase; Cell Cycle Distribution G2/M ([3]; 10 μM, 24 h): 11.92 ± 0.64; Cell Cycle Distribution S ([3]; 10 μM, 24 h): 44.86 ± 2.49; Cell Cycle Distribution G0/G1 ([3]; 25 μM, 24 h): 50.55 ± 0.97; Cell Cycle Distribution G2/M ([3]; 25 μM, 24 h): 10.75 ± 0.41; Cell Cycle Distribution S ([3]; 25 μM, 24 h): 38.71 ± 1.38; Cell Cycle Distribution G0/G1 ([3]; 50 μM, 24 h): 50.23 ± 1.94; Cell Cycle Distribution G2/M ([3]; 50 μM, 24 h): 6.36 ± 1.69; Cell Cycle Distribution S ([3]; 50 μM, 24 h): 43.41 ± 3.62; Cell Cycle Distribution G0/G1 ([3]; 100 μM, 24 h): 65.54 ± 4.07; Cell Cycle Distribution G2/M ([3]; 100 μM, 24 h): 13.24 ± 11.61; Cell Cycle Distribution S ([3]; 100 μM, 24 h): 21.31 ± 15.55; Rank of inhibitory potency on LPS-induced nitrite production [4]: H>G>K>C>I>B
